The values below come from article PMC8596843, “Platinum Cyclooctadiene Complexes with Activity against Gram‐positive Bacteria” (Chemmedchem, 2021).

In series [1] the test system is HEK-293 ATCC CRL-1573 human embryonic kidney cells. The series is classed as cell-based. Summed up:
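Compounds tested on HEK-293 cells at final 0.8–100 µM, with tamoxifen as internal positive control on each plate; haemolysis on human red blood cells incubated 1 h at 37 °C without shaking, reported as HC10 and HC50 from curve fits for top, bottom and slope, melittin as positive haemolytic control.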

Series [2] concerns Enterococcus faecalis Clinical Isolate, VRE (VanB). Kind of series: Antibacterial MIC assay, Gram-positive panel. To be noted: n=4. The series is classed as cell-based. A digest of the protocol: (§1)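 MIC is defined here as the lowest concentration inhibiting growth by ≥80% relative to untreated bacteria. The assay used OD600 in CAMHB after an 18 h, 37 °C incubation at 5 × 10^5 CFU/mL. Compound was dosed in 2-fold steps with DMSO capped at 0.5–1% final.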

Series [3] concerns Staphylococcus epidermidis ATCC 14990, type strain. Kind of series: Antibacterial MIC assay, Gram-positive panel. The series is classed as cell-based. The note with it: n=4. Summed up: as §1
For series [4], the system named is Galleria mellonella larvae. Kind of series: In vivo toxicity in moth larvae. The note with it: for concentration without any toxicity in G. mellonella: 10 μL injected, five larvae per concentration, survival and health index over 96 hours, highest tested; for dosage without any toxicity in G. mellonella: equates to 0.4 mM, 10 μL injection. Here is the method: Following a protocol previously reported by us we used larvae of the greater wax moth Galleria mellonella as a model organism for in vivo toxicity and efficacy.[20] […] Briefly, stock solutions of Pt1 and Pt2 were prepared in DMSO and diluted to final concentrations of 0.4 mM, 100 μM, 10 μM and 1 μM. […] For each concentration five larvae were injected with 10 μL and monitored for 96 hours for survival and health using the G. mellonella Health Index Scoring System.[22] […]
G. mellonella larvae were reared in controlled environmental room at Macquarie University, Sydney, Australia at 26 °C and 65% humidity with a 12-hours light/dark cycle. Larvae (~200 mg) were individually injected with 10 µL of chemical into the last right proleg using a 100 μL syringe (Hamilton Ltd). The […]
Each compound was dissolved in DMSO and diluted to final concentrations of 1 µM, 100 µM and 10 mM. We injected 5 larvae for each dilution of each compound.
Larvae injected with different dilutions of DMSO (10-1, 10-3 and 10-5) were included as negative controls.
Following injection, the larvae were incubated at 26 °C and monitored every 24 h for 4 days. Larval performance was assessed according to the G. mellonella Health Index Scoring System.[1] The experiments were repeated three separate times. […]

For series [5], the system named is Staphylococcus aureus NRS 17, GISA. Kind of series: Antibacterial MIC assay, Gram-positive panel. The note with it: n=2. The series is classed as cell-based. Summed up:
as §1

In series [6] the test system is E. coli lpxC (non‐efficient lipid A production mutant). Description: MIC against E. coli membrane mutants. The series is classed as cell-based, Escherichia coli. To be noted: Table S2. Summed up:
(§2)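 Mid-log E. coli cultures, grown overnight at 37 °C, were exposed to compound over a final 0.8–100 µM range. MIC was read as the lowest inhibitory concentration.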

The subject of series [7] is E. coli tolC (efflux pump deficient). Kind of series: MIC against E. coli membrane mutants. The series is classed as cell-based, Escherichia coli. The note with it: Table S2. Summed up:
as §2

In series [8] the test system is B. subtilis ATCC 6051 type strain. Description: MIC in the presence of human serum (serum reversal). The series is classed as cell-based, Bacillus subtilis. The note with it: 10% serum. Summed up: (§3)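 MIC determination repeated in the presence of 10% or 50% human serum. Bacteria grown overnight at 37 °C, diluted from mid-log cultures, and tested at a final concentration range of 0.8–100 µM.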

For series [9], the system named is S. aureus ATCC 43300 MRSA. The series is described as above. The note with it: 50% serum. The series is classed as cell-based, Staphylococcus aureus. A digest of the protocol:
as §3

Series [10] has as its system E. faecium ATCC 51559 MDR, VRE. The description is as above. To be noted: 10% serum. The series is classed as cell-based, Enterococcus faecium. A digest of the protocol:
as §3

Marks after values point to notes of the source that are not given here. Bounds are passed on as bounds.

One may read the CC50 as the concentration giving 50% cytotoxicity. High values mean lower toxicity to the cells, low ones greater toxicity to the cells. For orientation: MIC means the lowest concentration that inhibits growth of the organism. A lower MIC goes with a more susceptible organism. In [1], `C1=C\CC/C=C\CC/1.[Cl-].[Cl-].[Pt+2]` [Pt1, Pt(COD)Cl2] gave a CC50 greater than 100 µM. Further, the minimal inhibitory concentration (MIC) was 25^[a] μg/mL in series [2] (Table 2 panel) and 0.781^[a] μg/mL in series [3] (Table 2 panel). The “concentration without any toxicity in G. mellonella” value in [4] is no less than 400 µM. Besides, the “dosage without any toxicity in G. mellonella” value in series [4] lay in the range of 6 to 7.5 mg/kg.
As for `C1=CCC/C=C\CC1.[I][Pt][I]` [Pt2, Pt(COD)I2], the CC50 in series [1] was greater than 100 µM. The values for the MIC in series [2] (Table 2 panel), in series [5] (Table 2 panel) and in series [3] (Table 2 panel) were 12.5–25^[a] μg/mL, 0.78–1.56^[b] μg/mL and 1.56^[a] μg/mL, respectively. Moreover, the MIC E. coli lpxC in [6] was 100 µM. Moreover, in series [4], the “concentration without any toxicity in G. mellonella” value is no less than 400 µM. The “dosage without any toxicity in G. mellonella” value in [4] was 9 to 11 mg/kg.
With `CCC1=CCCC=CCC1.[CH3][Pt][Cl]` [Pt7], the CC50 in [1] was greater than 100 µM. Further, the MIC is greater than 200 µM in [2] (Table S1 panel), 200 µM in series [5] (Table S1 panel) and 200 µM in series [3] (Table S1 panel). Also, in [6], the MIC E. coli lpxC is greater than 200 µM. Moreover, the MIC E. coli TolC in series [7] is greater than 200 µM. The MIC in the presence of human serum in [8], in series [9] and in [10] was greater than 200 µM throughout.
